Among the data in patent US10711004B2 (Genentech, Inc., priority 2018, dated 2020) are IC50 values, retold here.

The target of one assay is human TRPA1 channel (Homo sapiens (Human), UniProt O75762). Description: hTRPA1 CHO Ca2+ FLIPR Tetra assay, block of cinnamaldehyde induced calcium influx. Conditions: CHO cells expressing TRPA1; compounds incubated 10 minutes at room temperature before cinnamaldehyde agonist; Hill coefficient fixed to 1.5. The assay is classed as cell-based. How it is done: CHO cells expressing TRPA1 were plated into 384-well plates, incubated overnight at 37° C., and loaded with BD calcium indicator dye for 1 hr at 37° C. followed by 15 minutes at room temperature. The assay buffer was Hank's Balanced Salt Solution (HBSS) containing 20 mM HEPES (pH readjusted to 7.4) along with 0.02% BSA.
Chain of human TRPA1 channel (O75762 whole entry): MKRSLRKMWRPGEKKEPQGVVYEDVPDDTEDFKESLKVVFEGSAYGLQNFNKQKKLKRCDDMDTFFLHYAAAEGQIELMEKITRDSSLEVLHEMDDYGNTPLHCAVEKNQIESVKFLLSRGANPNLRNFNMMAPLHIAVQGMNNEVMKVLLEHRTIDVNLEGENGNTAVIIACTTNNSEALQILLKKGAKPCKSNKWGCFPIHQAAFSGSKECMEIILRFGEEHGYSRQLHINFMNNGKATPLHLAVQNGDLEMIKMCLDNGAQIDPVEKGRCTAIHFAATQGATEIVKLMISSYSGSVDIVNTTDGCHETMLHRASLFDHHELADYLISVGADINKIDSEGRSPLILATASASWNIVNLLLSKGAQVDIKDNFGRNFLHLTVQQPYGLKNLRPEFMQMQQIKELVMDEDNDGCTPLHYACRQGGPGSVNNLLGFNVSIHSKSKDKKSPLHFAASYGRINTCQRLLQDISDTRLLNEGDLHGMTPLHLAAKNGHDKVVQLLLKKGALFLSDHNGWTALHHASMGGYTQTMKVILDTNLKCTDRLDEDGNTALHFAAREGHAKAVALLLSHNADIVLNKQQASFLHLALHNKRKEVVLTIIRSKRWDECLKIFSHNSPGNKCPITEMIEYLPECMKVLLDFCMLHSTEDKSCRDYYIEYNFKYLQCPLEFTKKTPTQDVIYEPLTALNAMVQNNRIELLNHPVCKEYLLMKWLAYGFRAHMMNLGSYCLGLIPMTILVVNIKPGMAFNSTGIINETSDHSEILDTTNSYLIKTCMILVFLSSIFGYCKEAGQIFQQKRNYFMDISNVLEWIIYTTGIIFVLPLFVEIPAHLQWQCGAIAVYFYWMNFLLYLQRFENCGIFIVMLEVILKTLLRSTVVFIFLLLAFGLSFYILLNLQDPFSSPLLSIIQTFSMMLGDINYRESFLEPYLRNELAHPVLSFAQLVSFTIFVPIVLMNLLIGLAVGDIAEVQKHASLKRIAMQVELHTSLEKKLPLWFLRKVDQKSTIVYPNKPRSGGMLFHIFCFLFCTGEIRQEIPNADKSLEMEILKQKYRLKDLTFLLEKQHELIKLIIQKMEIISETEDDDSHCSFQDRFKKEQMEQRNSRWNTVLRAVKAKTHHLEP
Following dye load and plate cool down, compounds were added to the cells using FLIPR Tetra. Plates were then incubated with compounds for 10 minutes or 90 minutes at room temperature prior to adding agonist. Following this incubation, about an EC50 concentration of cinnamaldehyde (75) was added to active the channels and block of cinnamaldehyde induced calcium influx was measured.
Fixing the Hill coefficient will generally reduce variability of the IC50 determination. The IC50 results were individually examined to make sure the MIN and MAX points were set correctly prior to validation of the results.
As usually defined, the IC50 is the midpoint of a concentration-inhibition curve. Take `Cn1cnc2ncn(Cc3nc([C@@H]4[C@H]5Cc6ccccc6[C@H]54)no3)c(=O)c21` (stereo in doubt) [Example Compound 2, 7-methyl-1-[[3-[rac-(1R,1aR,6aS)-1,1a,6,6a-tetrahydrocyclopropa[a]inden-1-yl]-1,2,4-oxadiazol-5-yl]methyl]purin-6-one]: the IC50 is 277 nM.

With `Cn1cnc2ncn(Cc3nc([C@H]4[C@@H]5Cc6ccccc6[C@@H]54)no3)c(=O)c21` (stereo in doubt) [Example Compound 3, 7-methyl-1-[[3-[rac-(1S,1aS,6aR)-1,1a,6,6a-tetrahydrocyclopropa[a]inden-1-yl]-1,2,4-oxadiazol-5-yl]methyl]purin-6-one], the IC50 turned out to be 588 nM. On to `Cc1ccnc2ncn(Cc3nc([C@@H]4[C@H]5Cc6ccccc6[C@H]54)no3)c(=O)c12` (stereo in doubt) [Example Compound 14, 5-methyl-3-[[3-[rac-(1S,1aS,6aR)-1,1a,6,6a-tetrahydrocyclopropa[a]inden-1-yl]-1,2,4-oxadiazol-5-yl]methyl]pyrido[2,3-d]pyrimidin-4-one], for which the IC50 worked out at 119 nM. On the same count and under the same terms, the value for `Cc1ccnc2ncn(Cc3nc([C@H]4[C@@H]5Cc6ccccc6[C@@H]54)no3)c(=O)c12` (stereo in doubt) [Example Compound 15, 5-methyl-3-[[3-[rac-(1R,1 aR,6aS)-1,1a,6,6a-tetrahydrocyclopropa[a]inden-1-yl]-1,2,4-oxadiazol-5-yl]methyl]pyrido[2,3-d]pyrimidin-4-one] was 305 nM; that for `Cc1cncc2ncn(Cc3nc([C@@H]4[C@H]5Cc6ccccc6[C@H]54)no3)c(=O)c12` (stereo in doubt) [Example Compound 19, 5-methyl-3-[[3-[rac-(1R,1 aR,6aS)-1,1a,6,6a-tetrahydrocyclopropa[a]inden-1-yl]-1,2,4-oxadiazol-5-yl]methyl]pyrido[3,4-d]pyrimidin-4-one] was 29.9 nM; that for `Cc1cncc2ncn(Cc3nc([C@H]4[C@@H]5Cc6ccccc6[C@@H]54)no3)c(=O)c12` (stereo in doubt) [Example Compound 20, 5-methyl-3-[[3-[rac-(1S,1aS,6aR)-1,1a,6,6a-tetrahydrocyclopropa[a]inden-1-yl]-1,2,4-oxadiazol-5-yl]methyl]pyrido[3,4-d]pyrimidin-4-one] was 94.3 nM.

Still in this assay, the particulars now being: read-out: hTRPA1 IC50 (10 min); CHO cells expressing TRPA1; compounds incubated 10 minutes at room temperature before cinnamaldehyde agonist; Hill coefficient fixed to 1.5.
Take “1-((3-((1R,5S,6r)-3-(3-fluorophenyl)-3-azabicyclo[3.1.0]hexan-6-yl)-1,2,4-oxadiazol-5-yl)methyl)-7-methyl-1,7-dihydro-6H-purin-6-one-2-d [Example Compound 89]”: the IC50 amounted to 31.1 nM. As to “1-((3-((1r,3r)-3-((3-chlorophenyl)difluoromethyl) cyclobutyl)-1,2,4-oxadiazol-5-yl)methyl)-7-methyl-1,7-dihydro-6H-purin-6-one [Example Compound 81]”, the IC50 turned out to be 143 nM.

With `Cn1cnc2ncn(Cc3nc([C@H]4C[C@H](C(F)(F)c5cccc(F)c5)C4)no3)c(=O)c21` (stereo in doubt) [Example Compound 248, 1-[[3-[trans-3-[difluoro-(3-fluorophenyl)methyl]cyclobutyl]-1,2,4-oxadiazol-5-yl]methyl]-7-methyl-purin-6-one], the IC50 was found to be 11.1 nM. With `Cn1cnc2ncn(Cc3nc([C@H]4[C@@H]5CN(c6cccc(OC(F)(F)F)c6)C[C@@H]54)no3)c(=O)c21` [Example Compound 4, 7-methyl-1-[[3-[(1R,5S,6r)-3-(3-trifluoromethoxy)phenyl-3-azabicyclo[3.1.0]hexan-6-yl]-1,2,4-oxadiazol-5-yl]methyl]purin-6-one], the IC50 was determined as 119 nM. The same measure, in the same setting: the result for `Cn1cnc2ncn(Cc3nc([C@H]4[C@@H]5CN(c6ccc(OC(F)(F)F)cc6)C[C@@H]54)no3)c(=O)c21` [Example Compound 6, 7-methyl-1-[[3-[(1R,5S,6 r)-3-[4-(trifluoromethoxy)phenyl]-3-azabicyclo[3.1.0]hexan-6-yl]-1,2,4-oxadiazol-5-yl]methyl]purin-6-one] reads 42.4 nM; that for `Cn1cnc2ncn(Cc3nc([C@H]4[C@@H]5CN(c6ccc(F)cc6)C[C@@H]54)no3)c(=O)c21` [Example Compound 7, 7-methyl-1-[[3-[(1R,5S,6 r)-3-(4-fluorophenyl)-3-azabicyclo[3.1.0]hexan-6-yl]-1,2,4-oxadiazol-5-yl]methyl]purin-6-one], 31 nM; that for `Cn1cnc2ncn(Cc3nc([C@H]4[C@@H]5CN(c6cccc(OC(F)F)c6)C[C@@H]54)no3)c(=O)c21` [Example Compound 8, 7-methyl-1-[[3-[(1R,5S,6 r)-3-[3-(difluoromethoxy)phenyl]-3-azabicyclo[3.1.0]hexan-6-yl]-1,2,4-oxadiazol-5-yl]methyl] purin-6-one], 105 nM. For the compound `Cc1cncc2ncn(Cc3nc([C@H]4C[C@](O)(c5ccc(Cl)cc5)C4)no3)c(=O)c12` [Example Compound 9, 3-((3-((1s,3s)-3-(4-chlorophenyl)-3-hydroxycyclobutyl)-1,2,4-oxadiazol-5-yl)methyl)-5-methylpyrido[3,4-d]pyrimidin-4(3H)-one], the IC50 came out at 30.9 nM. Consider `Cc1ccnc2ncn(Cc3nc([C@H]4C[C@](O)(c5ccc(Cl)cc5)C4)no3)c(=O)c12` [Example Compound 10, 3-((3-((1s,3s)-3-(4-chlorophenyl)-3-hydroxycyclobutyl)-1,2,4-oxadiazol-5-yl)methyl)-5-methylpyrido[2,3-d]pyrimidin-4(3H)-one], for which the IC50 turned out to be 141 nM. For the compound `O=c1c2cccnc2ncn1Cc1nc([C@H]2C[C@](O)(c3ccc(Cl)cc3)C2)no1` [Example Compound 11, 3-((3-((1s,3s)-3-(4-chlorophenyl)-3-hydroxycyclobutyl)-1,2,4-oxadiazol-5-yl)methyl)pyrido[2,3-d]pyrimidin-4(3H)-one], the IC50 worked out at 261 nM. `Cn1cnc2ncn(Cc3nc([C@H]4[C@@H]5CN(c6ccc(OC(F)F)cc6)C[C@@H]54)no3)c(=O)c21` [Example Compound 12, 7-methyl-1-[[3-[(1R,5S,6 r)-3-[4-(difluoromethoxy)phenyl]-3-azabicyclo[3.1.0]hexan-6-yl]-1,2,4-oxadiazol-5-yl]methyl]purin-6-one]: the IC50 stood at 50.4 nM. The same measure, in the same setting: the result for `COc1cccc(N2C[C@@H]3[C@H](C2)[C@H]3c2noc(Cn3cnc4ncn(C)c4c3=O)n2)c1` [Example Compound 13, 7-methyl-1-[[3-[(1R,5S,6 r)-3-(3-methoxyphenyl)-3-azabicyclo[3.1.0]hexan-6-yl]-1,2,4-oxadiazol-5-yl]methyl]purin-6-one] reads 158 nM; that for `Cc1ccnc2ncn(Cc3nc([C@H]4C[C@H](c5ccc(Cl)cc5)C4)no3)c(=O)c12` [Example Compound 17, 3-((3-((trans)-3-(4-chlorophenyl)cyclobutyl)-1,2,4-oxadiazol-5-yl)methyl)-5-methylpyrido[2,3-d]pyrimidin-4(3H)-one], 21.3 nM; that for `Cn1cnc2ncn(Cc3nc([C@H]4[C@@H]5CN(c6cccnc6)C[C@@H]54)no3)c(=O)c21` [Example Compound 18, 7-methyl-1-[[3-[(1R,5S,6r)-3-(3-pyridyl)-3-azabicyclo[3.1.0]hexan-6-yl]-1,2,4-oxadiazol-5-yl]methyl]purin-6-one], 778 nM. Regarding `Cn1cnc2c(C#N)nn(Cc3nc([C@H]4[C@@H]5CN(c6ccccc6)C[C@@H]54)no3)c2c1=O` [Example Compound 22, 6-methyl-7-oxo-1-[[3-[(1R,5S,6s)-3-phenyl-3-azabicyclo[3.1.0]hexan-6-yl]-1,2,4-oxadiazol-5-yl]methyl]pyrazolo[4,3-d]pyrimidine-3-carbonitrile], the IC50 worked out at 352 nM. Consider `Cn1cnc2ncn(Cc3nc([C@@H]4[C@@H]5CN(c6cccc(Cl)c6)C[C@@H]54)no3)c(=O)c21` [Example Compound 24, 7-methyl-1-[[3-[(1R,5S,6 r)-3-(3-chlorophenyl)-3-azabicyclo[3.1.0]hexan-6-yl]-1,2,4-oxadiazol-5-yl]methyl]purin-6-one], for which the IC50 was found to be 8.38 nM.

With `Cn1cnc2ncn(Cc3nc([C@H]4[C@@H]5CN(c6ccc(Cl)cc6)C[C@@H]54)no3)c(=O)c21` [Example Compound 25, 7-methyl-1-[[3-[(1R,5S,6 r)-3-(4-chlorophenyl)-3-azabicyclo[3.1.0]hexan-6-yl]-1,2,4-oxadiazol-5-yl]methyl]purin-6-one], the IC50 amounted to 20.4 nM.

Regarding `Cc1ccnc2ncn(Cc3nc(C4Cc5ccccc5C4)no3)c(=O)c12` [Example Compound 27, 3-((3-(2,3-dihydro-1H-inden-2-yl)-1,2,4-oxadiazol-5-yl)methyl)-5-methylpyrido[2,3-d]pyrimidin-4(3H)-one], the IC50 came out at 531 nM. Regarding `Cc1ccnc2ncn(Cc3nc([C@H]4[C@@H]5CN(c6ccc(Cl)cc6)C[C@@H]54)no3)c(=O)c12` [Example Compound 29, 5-methyl-3-[[3-[(1R,5S,6r)-3-(4-chlorophenyl)-3-azabicyclo[3.1.0]hexan-6-yl]-1,2,4-oxadiazol-5-yl]methyl]pyrido[2,3-d]pyrimidin-4-one], the IC50 stood at 290 nM. As for `Cn1cnc2ncn(Cc3nc([C@H]4[C@@H]5CN(c6cccc(C(F)(F)F)c6)C[C@@H]54)no3)c(=O)c21` [Example Compound 30, 7-methyl-1-[[3-[(1R,5S,6r)-3-[3-(trifluoromethyl)phenyl]-3-azabicyclo[3.1.0]hexan-6-yl]-1,2,4-oxadiazol-5-yl]methyl]purin-6-one], the IC50 was 52.7 nM.

The assay is the same for the next values; noted with them: read-out: hTRPA1 IC50 (90 min); CHO cells expressing TRPA1; compounds incubated 90 minutes at room temperature before cinnamaldehyde agonist; Hill coefficient fixed to 1.5.
For the compound `Cn1cnc2ncn(Cc3nc([C@H]4C[C@H](C(F)(F)c5cccc(F)c5)C4)no3)c(=O)c21` (stereo in doubt) [Example Compound 248, 1-[[3-[trans-3-[difluoro-(3-fluorophenyl)methyl]cyclobutyl]-1,2,4-oxadiazol-5-yl]methyl]-7-methyl-purin-6-one], the IC50 stood at 5.5 nM.
